Measured values taken from patent US20070042037A1, “Pharmaceutical composition containing levodopa and carbidopa” (priority 2003, published 2007).

Experiments:
[1] = Dissolution test, continuous-flow dissolution chamber, in vitro release; assay type: physicochemical; conditions: pH 1.1 artificial gastric juice, 25 ml/min, 37° C., mean of 6 measurements
Method: Six samples of a 250 mg preparation (50+200) were tested using a solution at pH 1.1 (artificial gastric juice) in a continuous-flow dissolution chamber (25 ml/min, 37° C.). The following percentages of release during the 24 hours were obtained (each value is the mean of 6 measurements): […]

[2] = in vivo; cited from earlier work
[3] = 3rd hour, 250 mg preparation (50 mg carbidopa+200 mg levodopa, ethylcellulose-coated granules)
[4] = 6th hour, 250 mg preparation (50+200)
[5] = 9th hour, 250 mg preparation (50+200)
[6] = 12th hour, 250 mg preparation (50+200)
[7] = 24th hour, 250 mg preparation (50+200)

Compound | In vitro release, % released average [1, 3] [%] | In vitro release, % released average [1, 4] [%] | In vitro release, % released average [1, 5] [%] | In vitro release, % released average [1, 6] [%] | In vitro release, % released average [1, 7] [%] | Time to attain the maximum plasmatic concentration [2] [h]
C[C@@](Cc1ccc(O)c(O)c1)(NN)C(=O)O [Carbidopa, carbidopa] | 26 | 39 | 51 | 63 | 89 | 
N[C@@H](Cc1ccc(O)c(O)c1)C(=O)O [Levodopa, levodopa] | 22 | 43 | 59 | 68 | 90 | 1 to 2
